Several values for one entry are separate records, joined by “and”; a condition that tells them apart may be missing. Equal values may be shown once. Entries after “also recorded” stand apart in the source; their conditions may differ. Read-outs that look alike come from different tables or passages of the source.
Assays:
[1] = Primary HCV replicon assay, cytotoxicity (neutral red dye uptake); settings: human
Method: (§1) Antiviral activity of test compounds was assessed in a 3-day assay using the stably-expressing HCV replicon cell line, AVA5 (sub-genomic CON1, genotype 1b) [Korba, B. E. et al. Antiviral Res. 77, 56-63 (2008); Blight et al., Science 290, 1972-1974 (2000)] maintained as sub-confluent cultures on 96-well plates as previously described [Okuse et al., Antiviral Research 65, 23-34 (2005)]. Antiviral activity was determined by blot hybridization analysis of intracellular HCV RNA (normalized to the level of cellular B-actin RNA in each culture sample) and cytotoxicity was assessed by neutral red dye uptake after 3 days of treatment. Additional studies were performed using Huh7 cells containing another HCV replicon, H/FL-Neo, a genotype 1a full length construct [Blight et al., J. Virol. 77, 3181-3190 (2003)]. For studies involving human serum, standard culture medium (which contains 10% fetal bovine serum) and assay conditions were maintained.
(§2) EC50, EC90 and CC50 values (±standard deviations [S.D.]) were calculated by linear regression analysis using data combined from all treated cultures (Korba, B. E. et al. Antiviral Res. 77, 56-63 (2008)). […] Selectivity index (S.I.) was calculated as CC50/EC90 for HBV assays and CC50/EC50 for HCV assays.

[2] = system: HCV replicon cell line, AVA5 (sub-genomic CON1, genotype 1b); assay: Primary HCV replicon assay, antiviral activity (intracellular HCV RNA); assay type: cell-based
Method: as §1, §2

[3] = Secondary HCV replicon assay, genotype 1B, cytotoxicity (neutral red dye uptake); settings: human
Method: as §1, §2

[4] = system: HCV replicon cell line, AVA5; assay: Primary HCV replicon assay, cytotoxicity (neutral red dye uptake); settings: primary assay; neutral red dye uptake after 3 days
Method: as §1, §2

J6/JFH-1 HCV = assay: Infectious genotype 2a cell culture assay (HCV replication by RT-PCR); assay type: cell-based; settings: for efficacy with regards to HCV replication: Huh7.5/JFH-1 HCV cell culture system; for inhibition of J6/JFH-1 HCV replication: 1 μM test concentration
Method: (§3) Genotype 2a antiviral assays were conducted as previously described [Lindenbach, B. D.; Rice, C. M. et al. Science, 309, 623-626 (2005)]. […] Cell viability was determined using the Calcein assay kit (Biotium, Inc. Hayward, Calif., USA). The alternate method for measuring cell cytotoxicity was via the Guava Technologies ViaCount assay (Millipore) The ViaCount Assay provides rapid and reliable determinations of viability and total cell count. It distinguishes viable and non-viable cells based on differential permeabilities of two DNA-binding dyes in the Guava ViaCount® Reagent. The nuclear dye stains only nucleated cells, while the viability dye brightly stains dying cells. This combination of dyes enables the Guava ViaCount Assay to distinguish viable, apoptotic, and dead cells. Debris is excluded from results based on negative staining with the nuclear dye.
HCV replication levels were determined by RT-PCR on RNA from cell culture supernatants. J6-infected Huh 7.5 cells were seeded in 12-well plates at a density of 2.0E^5 cells/well in 1.5 mL of DMEM supplemented with 10% FBS and 1% Pen/Strep. […] A positive control of IFN-α at concentrations of 10 IU/mL and 50 IU/mL, negative control wells containing mock incubations of DMEM with 1 uL and 10 uL (the same volume of the molecular compounds at 1 uM and 10 uM, respectively) of DMSO was included to rule out nonspecific effects of DMSO on the cells, and J6-infected with only DMEM were used as negative controls. A final control group consisted of un-infected Huh 7.5 cells, plated at the same time and density as the J6-infected cells on a separate plate. 48 hours and 120 hours after incubation with thiazolides, the media was collected and frozen, cells were washed 2× with PBS, and lysed in 500 uL of lysis buffer per well. Following lysis, RNA was extracted from the cells using the RNAqueous-4PCR Kit from Ambion, and the RNA concentration determined using the NanoDrop® machine. Reverse-transcription reactions produced 1.5 μg of cDNA per sample, which was then used for rt-PCR to quantify the HCV viral load in each sample. Analysis of the rt-PCR results generated the fold increases and decreases of the HCV viral load in comparison to untreated J6 cells.

Huh 7.5 cells = assay: Cytotoxicity in the infectious genotype 2a cell culture assay; assay type: cell-based
Method: as §3

[5] = Secondary HCV replicon assay, genotype 1A, cytotoxicity (neutral red dye uptake); settings: human
Method: as §1, §2

[6] = system: HCV replicon cell line, AVA5 (sub-genomic CON1, genotype 1b); assay: Secondary HCV replicon assay, genotype 1B, antiviral activity; assay type: cell-based
Method: as §1, §2

[7] = system: HCV replicon, H/FL-Neo, a genotype 1a full length construct; assay: Secondary HCV replicon assay, genotype 1A, antiviral activity; assay type: cell-based
Method: as §1, §2

[8] = system: HCV replicon cell line, AVA5; assay: Secondary HCV replicon assay, genotype 1B, cytotoxicity (neutral red dye uptake); settings: secondary assay, genotype 1B; neutral red dye uptake
Method: as §1, §2

[9] = cited from earlier work
[10] = system: Huh7 cells containing HCV replicon H/FL-Neo; assay: Secondary HCV replicon assay, genotype 1A, cytotoxicity (neutral red dye uptake); settings: secondary assay, genotype 1A; neutral red dye uptake
Method: as §1, §2

cellular esterases = assay: Metabolic stability of acetate prodrugs under the cell assay conditions; assay type: in vitro ADME
cytochrome P450 enzymes = settings: cited from earlier work
[11] = Hepatitis C virus, Ava5, primary assay, 2-fold depression of intracellular HCV RNA, read-out: EC50
[12] = Hepatitis C virus, Ava5, primary assay, 10-fold depression of intracellular HCV RNA, read-out: EC90
[13] = primary assay, 2-fold depression of intracellular HCV RNA, read-out: EC50
[14] = primary assay, 10-fold depression of intracellular HCV RNA, read-out: EC90

SMILES	CC50 [4] [µM]	EC50 [2, 11] [µM]	EC90 [2, 12] [µM]	efficacy with regards to HCV replication (J6/JFH-1 HCV)	inhibition of J6/JFH-1 HCV replication (J6/JFH-1 HCV; genotype G2a)	cytotoxic effect in Huh 7.5 cells (Huh 7.5 cells)	EC50 ([6]; Hepatitis C virus, Ava5) [µM]	EC90 ([6]; Hepatitis C virus, Ava5) [µM]	EC50 ([7]; Hepatitis C virus) [µM]	EC90 ([7]; Hepatitis C virus) [µM]	CC50 [8] [µM]	CC50 [10] [µM]	EC50 [2, 13] [µM]	EC90 [2, 14] [µM]	other results
CC(=O)Oc1ccccc1C(=O)Nc1nc([S+](C)[O-])cs1 (stereo not drawn) [Compound 1, 2-(4-(methylsulfinyl)thiazol-2-ylcarbamoyl)phenyl acetate]	–	–	–	–	–	–	–	–	–	–	–	–	–	–	CC50 at 3 days [1]: > 100 µM; EC50 ([2]; Hepatitis C virus, Ava5): > 10 µM; EC90 ([2]; Hepatitis C virus, Ava5): > 10 µM
C[S+]([O-])c1csc(NC(=O)c2ccccc2O)n1 (stereo not drawn) [Compound 2, 2-hydroxy-N-(4-(methylsulfinyl)thiazol-2-yl)benzamide]	63	2	4.6	demonstrated efficacy	shown to inhibit J6/JFH-1HCV replication	Neither of these compounds showed a cytotoxic effect	2.2	6.1	2.8	> 5	–	–	–	–	CC50 at 3 days [3]: > 100 µM; relative potency, % of NTZ (J6/JFH-1 HCV; genotype G2a, at 0.1 μM): 88 % of NTZ; relative activity, % of NTZ (J6/JFH-1 HCV; genotype G2a, at 1 μM): 95 % of NTZ; cytotoxic effect in Huh 7.5 cells (Huh 7.5 cells; listed as analog 2): without being cytotoxic; CC50 at 3 days [5]: > 100 µM
CC(=O)Oc1ccccc1C(=O)Nc1ncc([N+](=O)[O-])s1 [NTZ, Nitazoxanide]	31	0.21	0.98	demonstrated efficacy	shown to inhibit J6/JFH-1HCV replication	without being cytotoxic; also recorded: Neither of these compounds showed a cytotoxic effect	0.25	0.95	0.33	1.1	35	49	–	–	detection in plasma ([9]; after oral 500 mg NTZ tablet): not detected
CS(=O)(=O)c1cnc(NC(=O)c2ccccc2O)s1 [RM4863]	43	–	–	–	–	–	–	–	–	–	> 10	> 10	1.5	5.2	EC50 [6]: 0.9 µM; EC90 [6]: 8.8 µM; EC50 [7]: 0.8 µM; EC90 [7]: 3.4 µM
CC(=O)Oc1ccccc1C(=O)Nc1ncc(S(C)(=O)=O)s1 [RM4864]	20	–	–	–	–	–	–	–	–	–	–	–	> 10	> 10	metabolic stability (hydrolysis to the parent phenolic drug) (cellular esterases): metabolically stable
O=C(Nc1ncc([N+](=O)[O-])s1)c1ccccc1O [TIZ, Tizoxanide]	15	0.15	0.81	–	–	–	0.19	0.92	0.23	1	28	27	–	–	inhibition of cytochrome P450 enzymes (cytochrome P450 enzymes): does not inhibit; part of an oral dose excreted in feces as TIZ ([9]; oral dose of NTZ, feces): Approximately two-thirds; Maximum serum concentrations of TIZ ([9]; oral, one 500 mg NTZ tablet (Alinia) with food): approximately 10 μg/mL and ~37 μM; elimination half-life of TIZ from plasma ([9]; plasma): approximately 1.5 hours

Reference: patent US8772502B2, “Alkylsulfinyl-substituted thiazolide compounds” (Romark Laboratories, L.C., priority 2010, dated 2014)
